Here are results for eleven compounds from ChEMBL document CHEMBL1201862, “PubChem BioAssay data set” (2004).

Holding throughout (assay): NCI-60 cell line screen, 48 h
Test [1] deals with DU-145.
Test [2] relates to HCT-15.
The subject of test [3] is HL-60.
Test [4] deals with K562.
The subject of test [5] is MCF7.
The subject of test [6] is MDA-MB-231.
The subject of test [7] is MDA-MB-435.
The subject of test [8] is MDA-N.
In test [9] the test system is NCI-H23.
Test [10] deals with OVCAR-3.
For test [11], the system named is OVCAR-4.
Test [12] deals with SF-295.
Test [13] concerns SF-539.
The test system of test [14] is SN12C.
Test [15] deals with SR.
The subject of test [16] is UACC-257.
For test [17], the system named is UACC-62.
For test [18], the system named is UO-31.
Test [19] concerns A498.
The test system of test [20] is RXF 393.

The structures appear in SMILES notation.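 Five compound concentrations were applied to cells in 96-well plates for 48 hours; endpoints were derived by simple linear interpolation of the resulting dose-response curve. GI50 is the concentration that inhibits growth by half.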 The source made the active and inactive calls. Cut-off read from the data, not from the text of the source: active = GI50 up to about 1.1 µM and inactive = higher.

`COc1ccc(N[S+]([O-])c2ccc(OC)cc2)cc1` (stereo not given): the GI50 in [1] is 64.9 µM (inactive); in test [2], 11.2 µM; in test [3], 41.2 µM (inactive); in test [4], 26.1 µM (inactive); in [5] it was 31.6 µM (inactive); in test [6] it was 37.9 µM (inactive). Further, the GI50 in test [7] is 15.9 µM (inactive); in test [8], 41.3 µM (inactive); in [9], > 100 µM (inactive); in test [10], > 100 µM (inactive); in [11] it was > 100 µM (inactive); in [12], 24 µM (inactive). Further, the GI50 is 14.6 µM (inactive) in test [13]; > 100 µM (inactive) in [14]; 26.9 µM (inactive) in [15]; 69 µM (inactive) in test [16]; 14.6 µM (inactive) in test [17]; 12.5 µM (inactive) in test [18].

For the compound `O=C(CC(O)(C(F)(F)F)C(F)(F)F)c1cccs1`, the GI50 in [1] is > 10 µM (inactive); in test [2] it was above 10 µM; in test [3], > 10 µM (inactive); in [4], > 10 µM (inactive); in test [5] it was > 10 µM (inactive); in test [6] it was > 10 µM (inactive). In addition, the GI50 in [7], in test [8], in test [9], in test [10], in [11] and in test [12] was > 10 µM (inactive) each time. Moreover, the GI50 in [13], in test [14], in [15], in test [16] and in test [17] was > 10 µM (inactive) each time.

As for `Cc1nc(N(C(C)C)C(C)C)c(C(C)C)o1`, the GI50 in test [19] is > 100 µM (inactive); in [1], > 100 µM (inactive); in test [2] it was above 100 µM; in [3], > 100 µM (inactive); in test [4], > 100 µM (inactive); in test [5], > 100 µM (inactive). Besides, the GI50 in test [6], in test [7], in [8], in test [9], in [10] and in test [11] was > 100 µM (inactive) in each case. In addition, the GI50 in test [20], in test [12], in test [13], in test [14], in test [16] and in test [17] was > 100 µM (inactive) throughout. The GI50 in test [18] was > 100 µM (inactive).

On to `O=c1[nH]c2nc3ccccc3c(=O)n2/c1=C/c1ccc(Cl)cc1`, for which the GI50 in [1] was 33.3 µM (inactive); in [2], 27.2 µM; in [3] it was 48.8 µM (inactive); in test [5], 50.1 µM (inactive); in test [6], 58.1 µM (inactive); in test [7], 21.7 µM (inactive). Moreover, the GI50 in test [8] is 22.2 µM (inactive); in test [9], 25.8 µM (inactive); in test [10], 24.3 µM (inactive); in test [11], > 100 µM (inactive); in [20] it was 46.5 µM (inactive); in test [12], 54.6 µM (inactive). The GI50 in [13] was 21.7 µM (inactive); in test [14], 26.8 µM (inactive); in test [15], > 100 µM (inactive); in test [16], 30.7 µM (inactive); in test [17], 33.3 µM (inactive); in [18], 67.6 µM (inactive).

Regarding `CNC1C(O)C(NC)C2OC3(O)C(=O)CC(C)OC3OC2C1O` (stereo not given), the GI50 in [1] was > 100 µM (inactive); in [2], above 100 µM; in test [3], > 100 µM (inactive); in [4] it was > 100 µM (inactive); in [5] it was > 100 µM (inactive); in test [6] it was > 100 µM (inactive). Moreover, the GI50 in test [7], in test [8], in test [9], in test [10], in [11] and in test [20] was > 100 µM (inactive) in each case. The GI50 in [12], in [13], in test [14], in [15], in test [16] and in [17] was > 100 µM (inactive) each time. Also, the GI50 in test [18] is > 100 µM (inactive).

Consider `CC1CCCOc2ccc(cc2)/C=N\c2ccc(cc2)CCc2ccc(cc2)/N=C\c2ccc(cc2)OCCC1`, for which the GI50 in [19] was > 100 µM (inactive); in test [1], > 100 µM (inactive); in [2], above 100 µM; in test [4] it was > 100 µM (inactive); in [5], > 100 µM (inactive); in test [6], > 100 µM (inactive). The GI50 in [7], in test [8], in test [9], in test [10], in [11] and in test [12] was > 100 µM (inactive) in each case. In addition, the GI50 in [13], in test [14], in test [15], in test [16], in test [17] and in test [18] was > 100 µM (inactive) in each case.

Consider `Cc1ccc(-n2c(C)n[nH]c2=O)cc1`, for which the GI50 is > 100 µM (inactive) in [1]; above 100 µM in test [2]; > 100 µM (inactive) in test [4]; > 100 µM (inactive) in test [5]; > 100 µM (inactive) in test [6]; > 100 µM (inactive) in [7]. For the same compound, the GI50 in test [8], in test [9], in test [10], in [20], in test [12] and in test [13] was > 100 µM (inactive) each time. For the same compound, the GI50 in [14], in test [15], in [16], in test [17] and in test [18] was > 100 µM (inactive) in each case.

As for `OC1(c2ccccc2)CCN(Cc2c[nH]c3ccccc23)CC1`, the GI50 was 92.3 µM (inactive) in test [19]; > 100 µM (inactive) in [1]; 49.5 µM in test [2]; 48.2 µM (inactive) in [3]; 33.2 µM (inactive) in [4]; 50.5 µM (inactive) in test [5]. Further, the GI50 in [6] is 81.3 µM (inactive); in [7], 37.2 µM (inactive); in [8] it was 30.7 µM (inactive); in [9], 96.6 µM (inactive); in [10], > 100 µM (inactive); in test [11], > 100 µM (inactive). The GI50 in test [20] is 63.2 µM (inactive); in [12], 92.7 µM (inactive); in test [13] it was 79.3 µM (inactive); in test [14], > 100 µM (inactive); in test [16], 18.3 µM (inactive); in test [17], 47.8 µM (inactive). In [18], the GI50 is 31 µM (inactive).

For the compound `CC(=O)C1=C(C)N2C(=NC3=C(CCc4ccccc43)C2c2ccc(Cl)cc2)S1` (stereo not given), the GI50 in test [19] is 20.7 µM (inactive); in test [1], > 100 µM (inactive); in test [2], 29.2 µM; in [3] it was 4.42 µM (inactive); in test [4], 2.05 µM (inactive); in test [5] it was 20.5 µM (inactive). In addition, the GI50 is > 100 µM (inactive) in [6]; > 43.1 µM (inactive) in test [7]; 46.8 µM (inactive) in [8]; 71.1 µM (inactive) in test [9]; > 38.7 µM (inactive) in [10]; > 36.1 µM (inactive) in test [11]. Besides, the GI50 is 5.56 µM (inactive) in test [20]; > 100 µM (inactive) in [12]; > 92.9 µM (inactive) in test [13]; > 100 µM (inactive) in test [14]; > 78.5 µM (inactive) in [16]; 58.7 µM (inactive) in [17]. The GI50 in test [18] is > 53.7 µM (inactive).

Regarding `Cc1ccc(S(=O)(=O)c2c(O)c3ccc(O)c(C)c3oc2=O)cc1`, the GI50 in test [1] is > 100 µM (inactive); in test [2], above 100 µM; in test [3], 23.4 µM (inactive); in [4], > 100 µM (inactive); in test [5], > 100 µM (inactive); in [6], > 100 µM (inactive). Further, the GI50 in test [7], in test [8], in test [9], in test [10], in [11] and in [20] was > 100 µM (inactive) throughout. The GI50 in test [12], in [13], in test [14], in test [15], in [16] and in test [17] was > 100 µM (inactive) each time. For the same compound, in [18], the GI50 was > 100 µM (inactive).

`CCCCCCCCCCCCCCCCP(=O)(O)OP(=O)(O)OCC1OC(n2cnc3c(N)ncnc32)C(O)C1O` (stereo not given): the GI50 was 46.9 µM (inactive) in test [1]; 23.8 µM in test [2]; 35.4 µM (inactive) in [3]; 25.8 µM (inactive) in test [4]; 22.6 µM (inactive) in test [5]; 35.1 µM (inactive) in [6]. Besides, the GI50 is 30.6 µM (inactive) in test [7]; 43.4 µM (inactive) in test [8]; 26.8 µM (inactive) in test [9]; 32.2 µM (inactive) in test [10]; 36.3 µM (inactive) in test [11]; 19.1 µM (inactive) in test [13]. The GI50 in test [14] was 20.8 µM (inactive); in test [15], 45.5 µM (inactive); in test [16], 23.7 µM (inactive); in test [17] it was 24.3 µM (inactive); in test [18] it was 15.8 µM (inactive).
